Assay results published in ChEMBL document CHEMBL1133366, “Synthesis and structure-activity relationships of 3-cyano-4-(phenoxyanilino)quinolines as MEK (MAPKK) inhibitors” (Bioorg Med Chem Lett, 2000).

Columns and labels:
[1] = target: T1, Serine/threonine-protein kinase RAF and Dual specificity mitogen-activated protein kinase kinase 1 (Raf/MEK) (Homo sapiens, UniProt P04049+Q02750); assay: Inhibition of ERK-phosphorylation by Raf-MEK-ERK in coupled ELISA; format: protein assay
[2] = target: Dual specificity mitogen-activated protein kinase kinase 1 (Homo sapiens, UniProt Q02750); assay: Inhibition of ERK-phosphorylation by MEK-ERK in direct ELISA
Chain of Dual specificity mitogen-activated protein kinase kinase 1 (Q02750 whole entry): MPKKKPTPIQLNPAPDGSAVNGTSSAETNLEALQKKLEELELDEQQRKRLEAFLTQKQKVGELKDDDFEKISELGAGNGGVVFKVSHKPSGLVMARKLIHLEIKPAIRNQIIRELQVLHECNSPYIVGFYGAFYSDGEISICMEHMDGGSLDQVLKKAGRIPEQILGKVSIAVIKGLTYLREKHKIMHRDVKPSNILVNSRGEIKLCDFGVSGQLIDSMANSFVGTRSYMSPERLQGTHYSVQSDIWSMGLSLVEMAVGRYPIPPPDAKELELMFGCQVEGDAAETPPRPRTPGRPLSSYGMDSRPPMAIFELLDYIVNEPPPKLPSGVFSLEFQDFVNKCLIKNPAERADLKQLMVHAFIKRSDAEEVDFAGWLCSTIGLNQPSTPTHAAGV

LoVo = assay: Inhibition of LoVo human colon tumor cell proliferation
SW-620 = assay: Inhibition of SW620 human colon tumor cell proliferation
COLO 205 = assay: cells; conditions: Homo sapiens
Description: Inhibition of COLO 205 human colon tumor cell proliferation

[3] = target: T1, Serine/threonine-protein kinase RAF and Dual specificity mitogen-activated protein kinase kinase 1 (Raf/MEK); assay: Inhibition of ERK phosphorylation in coupled Raf-MEK-ERK ELISA (Weakly active); format: protein assay

Compound: COc1cc2ncc(C#N)c(Nc3ccccc3Oc3ccccc3)c2cc1OC
- IC50 [1]: > 10000 nM
- IC50 [2]: > 10000 nM

Compound: COc1cc2ncc(C#N)c(Nc3ccc(Oc4ccccc4)cc3)c2cc1OC
- IC50 (LoVo): 630 nM
- IC50 (SW-620): 1500 nM
- IC50 (COLO 205): 1430 nM

Compound: COc1cc2c(Nc3ccc(Oc4ccccc4)cc3)c(C#N)cnc2cc1OCCCN1CCOCC1
- IC50 (LoVo): 190 nM
- IC50 [1]: 2.4 nM
- IC50 [2]: 7 nM
- IC50 (SW-620): 380 nM
- IC50 (COLO 205): 360 nM

Compound: COc1cc2c(Nc3ccc(Oc4ccccc4)cc3)c(C#N)cnc2c(OC)c1OC
- IC50 [1]: > 10000 nM
- IC50 [2]: > 10000 nM

Compound: COc1ccc(OC)c2c(Nc3ccc(Oc4ccccc4)cc3)c(C#N)cnc12
- IC50 [1]: > 10000 nM
- IC50 [2]: > 10000 nM

Compound: COc1cccc2c(Nc3ccc(Oc4ccccc4)cc3)c(C#N)cnc12
- IC50 [1]: > 10000 nM
- IC50 [2]: > 10000 nM

Compound: COc1cc2c(Nc3ccc(Oc4ccccc4)cc3)c(C#N)cnc2cc1OCCN1CCOCC1
- IC50 (LoVo): 250 nM
- IC50 (SW-620): 700 nM
- IC50 (COLO 205): 630 nM

Compound: COc1cc2ncnc(Nc3ccc(Oc4ccccc4)cc3)c2cc1OC
- IC50 [3]: > 100000 nM
